Experimental data taken from article PMC9962600, “Structure-Function Studies of Sponge-Derived Compounds on the Cardiac CaV3.1 Channel” (International Journal of Molecular Sciences, 2023).
Several values for one entry are separate records, joined by “and”; a condition that tells them apart may be missing. Equal entries are not always repeated.

Tests used:
[1] = biological target: rat CaV3.3 (Rattus norvegicus, UniProt Q9Z0Y8); experiment: Two-electrode voltage clamp on Xenopus oocytes expressing CaV3.3; format: cell-based; conditions: for Shift in the voltage dependency (activation/inactivation) of CaV3.3: 10 μM compound; for Hill coefficient on CaV3.3: concentration-response fit; for IC50: concentration-response, means ± SEM; for Reversibility of effect on CaV3.3 on wash-out: wash-in and wash-out
Description: (§1) Rat CaV3.1, human CaV3.2, rat CaV3.3, human NaV1.5, rat KV1.4, rat KV4.2, and human KV11.1 were expressed in X. laevis oocytes by linearizing the plasmids and subsequent in vitro transcription using a commercial T7 mMESSAGE mMACHINE transcription kit (Ambion, Carlsbad, CA, USA). Defolliculated Xenopus oocytes were injected with 50 nL of cRNA at a concentration of 1 ng/nL by using a microinjector (Drummond Scientific Company, Broomall, PA, USA). The oocytes were incubated in a solution containing (in mM): NaCl, 96; KCl, 2; CaCl2, 1.8; MgCl2, 2; and HEPES, 5 (pH 7.5). This solution was supplemented with 50 mg/L gentamicin sulfate and […] theophylline.
(§2) Two-electrode voltage clamp recordings were performed at room temperature (18–22 °C) by using a GeneClamp 500 amplifier (Molecular Devices, San Jose, CA, USA) controlled by a pClamp data acquisition system (Axon Instruments, Union City, CA, USA). Whole-cell currents from oocytes were recorded 5–10 days after mRNA injection. The bath solution composition was the following (in mM): BaCl2, 10; NaOH, 90; KOH, 1; EDTA, 0.1; and HEPES, 5 (pH 7.5). Voltage and current electrodes were filled with 3 M KCl. Resistances of both electrodes were kept between 0.8 and 1.5 MΩ. The elicited CaV3.1, CaV3.2, and CaV3.3 currents were filtered at 2 kHz and sampled at 4 kHz using a four-pole low-pass Bessel filter. Leak subtraction was performed by using a -P/4 protocol. Oocytes were placed in a measuring chamber filled with 200 μL ND96. The compounds were added directly to the measuring chamber under continuous application of the described voltage protocol. The percentage channel modulation was calculated when steady-state conditions were reached.
(§3) For the electrophysiological analysis of peptides, a number of protocols were applied from a holding potential of −90 mV. Currents for CaV3.1 and CaV3.2, which were carried by Ba^2+, were evoked by 300 ms depolarizing pulses to −25 mV or Vmax (the voltage corresponding to maximal Ba^2+ current in control conditions). Currents for CaV3.3, which were carried by Ba^2+, were evoked by 1 s depolarizing pulses to −25 mV or Vmax. The current–voltage relationships were determined by 600 ms step depolarizations between −90 and +60 mV, using 10 mV increments. The values of IPBa were normalized to the maximal Ba^2+ current amplitude and plotted as a function of voltage. To investigate the effect of the peptide toxins on the activation and steady-state inactivation, a standard 2-step protocol was used. In this protocol, 600 ms conditioning 10 mV step prepulses, ranging from −90 to +60 mV, were followed by a 400 ms test pulse to −25 mV. Data were normalized to the maximal Ba^2+ current amplitude, plotted against prepulse potential, and fitted by using the Boltzmann function: ICa/Imax = {(1 − C)/(1 + exp[(V − Vh)/k)]} + C, where Imax is the maximal IBa, Vh is the voltage corresponding to half-maximal inactivation, V is the test voltage, k is the slope factor, and C is a constant representing a non-inactivating persistent fraction (close to 0 in control). The concentration–response relationship was determined by fitting the data with the Hill equation: y = 100/{1 + [IC50/(toxin)]^h}, where y is the amplitude of the toxin-induced effect, IC50 is the toxin concentration at half-maximal efficacy, toxin is the toxin concentration, and h is the Hill coefficient.

[2] = biological target: KV11.1 (hERG) (Homo sapiens, UniProt Q12809); experiment: Selectivity screening, KV11.1 (hERG) in Xenopus oocytes; format: cell-based; conditions: human, Xenopus laevis oocytes expressing human KV11.1 (hERG), pH 7.5; 10 μM; means ± SEM (n ≥ 3); read-out: Percentage of inhibition of KV11.1
Description: (§4) As these purpurealidin analogs represent a new class of potent CaV3.1 inhibitors, they could potentially be used as pharmacological tools to investigate the role of CaV3 channels in various disease models. Therefore, compounds 74, 76, 79, and 99 were further evaluated at a concentration of 10 μM for their selectivity against cardiac voltage-gated potassium and sodium channels. […] Nevertheless, the affinity for the KV11.1 channel is an important issue for all four compounds (Table 2).
as §1
(§5) The selectivity screening was conducted with the following protocols: the elicited KV1.4, KV4.2, and KV11.1 currents were filtered at 0.5 kHz and sampled at 2 kHz; NaV1.5 currents were filtered at 2 kHz and sampled at 20 kHz using a four-pole low-pass Bessel filter. Leak subtraction was performed using a -P/4 protocol. The oocytes were measured in a bath solution composition of ND96 (in mM): NaCl, 96; KCl, 2; CaCl2, 1.8; MgCl2, 2; and HEPES, 5 (pH 7.5). For the electrophysiological analysis of the compounds, a number of protocols were applied from a holding potential of −90 mV. Currents for KV1.4 and KV4.2 were evoked by 0.5 s depolarizing pulses to 0 mV, followed by 0.5 s repolarizing pulses to −50 mV. Currents for KV11.1 were evoked by 2.5 s depolarizing prepulses to +40 mV, followed by hyperpolarizing pulses to −120 mV for 2.5 s. Currents for NaV1.5 were evoked by 100 ms depolarizing pulses to 0 mV.

[3] = biological target: human CaV3.2 (Homo sapiens, UniProt O95180); experiment: Two-electrode voltage clamp on Xenopus oocytes expressing CaV3.2; format: cell-based; conditions: for Shift in the voltage dependency (activation/inactivation) of CaV3.2: 10 μM compound; for Hill coefficient on CaV3.2: concentration-response fit; for IC50: concentration-response, means ± SEM; for Reversibility of effect on CaV3.2 on wash-out: wash-in and wash-out
Description: as §1, §2, §3

[4] = biological target: T1, rat CaV3.1 channel (Rattus norvegicus, UniProt O54898); experiment: Two-electrode voltage clamp on Xenopus oocytes expressing CaV3.1; format: cell-based; conditions: for Shift in the voltage dependency (activation/inactivation) of CaV3.1 / inhibition at 10 µM: 10 μM compound; for inhibition at 10 µM: 10 mM Ba2+, means ± SEM (n ≥ 3), read-out: Inhibition of CaV3.1 currents; for IC50: concentration-response 0.1-100 μM, means ± SEM; for Hill coefficient on CaV3.1: concentration-response fit; for Reversibility of effect on CaV3.1 on wash-out: wash-in and wash-out
Description: In previous work, a library of 119 simplified analogs was synthesized with the aim of targeting KV10.1 [18, 23, 24, 25]. Due to the interesting activity of purpurealidin I (1), we decided to repurpose this existing library to investigate the structure–activity relationship with respect to the CaV3.1 channels. All compounds were first dissolved in DMSO and then diluted in a 10 mM Ba^2+ solution. Compounds were tested at a final concentration of 10 μM.
as §1, §2, §3

[5] = biological target: T1, rat CaV3.1 channel; experiment: as above; format: cell-based
[6] = biological target: human KV11.1 (Homo sapiens, UniProt Q12809); experiment: Selectivity screening, KV11.1 (hERG) in Xenopus oocytes; format: cell-based; conditions: comparison of own CaV3.1 and KV11.1 data
Description: as §4, §1, §5

[7] = tested on: hERG channels; conditions: reference not given; cited from earlier work

T1 sequence (O54898 whole entry): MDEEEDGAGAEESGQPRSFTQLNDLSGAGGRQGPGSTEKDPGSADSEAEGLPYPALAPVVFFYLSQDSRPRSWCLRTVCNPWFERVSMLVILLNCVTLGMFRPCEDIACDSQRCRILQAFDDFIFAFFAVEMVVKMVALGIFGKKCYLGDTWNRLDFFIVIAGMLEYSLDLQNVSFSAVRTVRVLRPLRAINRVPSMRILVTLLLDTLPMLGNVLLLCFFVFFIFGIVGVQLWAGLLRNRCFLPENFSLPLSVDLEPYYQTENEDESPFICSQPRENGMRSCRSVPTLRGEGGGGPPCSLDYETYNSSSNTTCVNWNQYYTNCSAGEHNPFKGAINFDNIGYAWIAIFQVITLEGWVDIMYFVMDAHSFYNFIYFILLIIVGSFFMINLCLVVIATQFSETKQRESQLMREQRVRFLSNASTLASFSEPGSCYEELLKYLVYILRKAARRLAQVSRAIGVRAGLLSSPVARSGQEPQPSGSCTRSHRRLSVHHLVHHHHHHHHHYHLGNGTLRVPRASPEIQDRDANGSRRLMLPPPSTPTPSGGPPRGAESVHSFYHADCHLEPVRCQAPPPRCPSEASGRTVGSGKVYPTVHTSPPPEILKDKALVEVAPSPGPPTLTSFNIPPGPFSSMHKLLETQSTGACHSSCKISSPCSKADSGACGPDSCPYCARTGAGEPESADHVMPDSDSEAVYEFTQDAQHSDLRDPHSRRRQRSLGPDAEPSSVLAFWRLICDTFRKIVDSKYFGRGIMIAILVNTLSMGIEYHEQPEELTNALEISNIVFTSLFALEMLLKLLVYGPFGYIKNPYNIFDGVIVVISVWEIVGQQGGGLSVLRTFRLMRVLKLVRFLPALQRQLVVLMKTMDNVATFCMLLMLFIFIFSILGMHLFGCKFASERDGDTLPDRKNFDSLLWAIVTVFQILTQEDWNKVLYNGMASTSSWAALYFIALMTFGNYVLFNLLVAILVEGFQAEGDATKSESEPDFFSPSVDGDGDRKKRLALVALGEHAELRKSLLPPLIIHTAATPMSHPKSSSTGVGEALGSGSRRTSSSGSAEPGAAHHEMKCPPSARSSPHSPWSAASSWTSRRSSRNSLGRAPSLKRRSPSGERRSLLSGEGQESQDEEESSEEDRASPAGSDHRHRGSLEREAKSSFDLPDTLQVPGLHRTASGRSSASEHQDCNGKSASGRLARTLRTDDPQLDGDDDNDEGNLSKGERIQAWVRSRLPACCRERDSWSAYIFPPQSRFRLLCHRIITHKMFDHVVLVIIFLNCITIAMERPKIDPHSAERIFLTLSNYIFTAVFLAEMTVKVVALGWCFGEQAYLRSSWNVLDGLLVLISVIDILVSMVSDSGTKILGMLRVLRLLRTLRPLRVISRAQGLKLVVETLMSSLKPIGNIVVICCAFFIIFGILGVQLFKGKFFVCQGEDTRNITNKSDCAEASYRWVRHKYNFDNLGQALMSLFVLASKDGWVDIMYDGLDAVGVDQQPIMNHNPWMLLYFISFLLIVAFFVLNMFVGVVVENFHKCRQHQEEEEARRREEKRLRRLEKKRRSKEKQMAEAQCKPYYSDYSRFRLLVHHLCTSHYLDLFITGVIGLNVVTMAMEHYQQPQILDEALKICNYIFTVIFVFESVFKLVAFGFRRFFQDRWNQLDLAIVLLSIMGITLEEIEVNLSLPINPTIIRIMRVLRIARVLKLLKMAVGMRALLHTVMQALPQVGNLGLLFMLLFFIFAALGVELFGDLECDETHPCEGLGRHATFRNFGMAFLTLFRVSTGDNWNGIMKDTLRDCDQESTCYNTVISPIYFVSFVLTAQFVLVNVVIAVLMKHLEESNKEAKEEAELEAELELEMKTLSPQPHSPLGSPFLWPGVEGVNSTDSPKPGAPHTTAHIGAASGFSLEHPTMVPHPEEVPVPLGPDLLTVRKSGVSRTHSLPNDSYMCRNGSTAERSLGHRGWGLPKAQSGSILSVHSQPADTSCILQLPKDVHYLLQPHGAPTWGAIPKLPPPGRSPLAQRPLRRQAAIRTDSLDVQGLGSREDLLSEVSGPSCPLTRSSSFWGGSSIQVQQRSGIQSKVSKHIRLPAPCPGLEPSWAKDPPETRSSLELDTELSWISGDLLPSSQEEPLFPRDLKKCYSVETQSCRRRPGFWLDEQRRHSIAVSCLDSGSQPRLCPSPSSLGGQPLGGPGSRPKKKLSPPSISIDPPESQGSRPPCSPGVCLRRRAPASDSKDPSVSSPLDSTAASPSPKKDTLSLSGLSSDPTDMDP
Sequence of human CaV3.2 (O95180 whole entry): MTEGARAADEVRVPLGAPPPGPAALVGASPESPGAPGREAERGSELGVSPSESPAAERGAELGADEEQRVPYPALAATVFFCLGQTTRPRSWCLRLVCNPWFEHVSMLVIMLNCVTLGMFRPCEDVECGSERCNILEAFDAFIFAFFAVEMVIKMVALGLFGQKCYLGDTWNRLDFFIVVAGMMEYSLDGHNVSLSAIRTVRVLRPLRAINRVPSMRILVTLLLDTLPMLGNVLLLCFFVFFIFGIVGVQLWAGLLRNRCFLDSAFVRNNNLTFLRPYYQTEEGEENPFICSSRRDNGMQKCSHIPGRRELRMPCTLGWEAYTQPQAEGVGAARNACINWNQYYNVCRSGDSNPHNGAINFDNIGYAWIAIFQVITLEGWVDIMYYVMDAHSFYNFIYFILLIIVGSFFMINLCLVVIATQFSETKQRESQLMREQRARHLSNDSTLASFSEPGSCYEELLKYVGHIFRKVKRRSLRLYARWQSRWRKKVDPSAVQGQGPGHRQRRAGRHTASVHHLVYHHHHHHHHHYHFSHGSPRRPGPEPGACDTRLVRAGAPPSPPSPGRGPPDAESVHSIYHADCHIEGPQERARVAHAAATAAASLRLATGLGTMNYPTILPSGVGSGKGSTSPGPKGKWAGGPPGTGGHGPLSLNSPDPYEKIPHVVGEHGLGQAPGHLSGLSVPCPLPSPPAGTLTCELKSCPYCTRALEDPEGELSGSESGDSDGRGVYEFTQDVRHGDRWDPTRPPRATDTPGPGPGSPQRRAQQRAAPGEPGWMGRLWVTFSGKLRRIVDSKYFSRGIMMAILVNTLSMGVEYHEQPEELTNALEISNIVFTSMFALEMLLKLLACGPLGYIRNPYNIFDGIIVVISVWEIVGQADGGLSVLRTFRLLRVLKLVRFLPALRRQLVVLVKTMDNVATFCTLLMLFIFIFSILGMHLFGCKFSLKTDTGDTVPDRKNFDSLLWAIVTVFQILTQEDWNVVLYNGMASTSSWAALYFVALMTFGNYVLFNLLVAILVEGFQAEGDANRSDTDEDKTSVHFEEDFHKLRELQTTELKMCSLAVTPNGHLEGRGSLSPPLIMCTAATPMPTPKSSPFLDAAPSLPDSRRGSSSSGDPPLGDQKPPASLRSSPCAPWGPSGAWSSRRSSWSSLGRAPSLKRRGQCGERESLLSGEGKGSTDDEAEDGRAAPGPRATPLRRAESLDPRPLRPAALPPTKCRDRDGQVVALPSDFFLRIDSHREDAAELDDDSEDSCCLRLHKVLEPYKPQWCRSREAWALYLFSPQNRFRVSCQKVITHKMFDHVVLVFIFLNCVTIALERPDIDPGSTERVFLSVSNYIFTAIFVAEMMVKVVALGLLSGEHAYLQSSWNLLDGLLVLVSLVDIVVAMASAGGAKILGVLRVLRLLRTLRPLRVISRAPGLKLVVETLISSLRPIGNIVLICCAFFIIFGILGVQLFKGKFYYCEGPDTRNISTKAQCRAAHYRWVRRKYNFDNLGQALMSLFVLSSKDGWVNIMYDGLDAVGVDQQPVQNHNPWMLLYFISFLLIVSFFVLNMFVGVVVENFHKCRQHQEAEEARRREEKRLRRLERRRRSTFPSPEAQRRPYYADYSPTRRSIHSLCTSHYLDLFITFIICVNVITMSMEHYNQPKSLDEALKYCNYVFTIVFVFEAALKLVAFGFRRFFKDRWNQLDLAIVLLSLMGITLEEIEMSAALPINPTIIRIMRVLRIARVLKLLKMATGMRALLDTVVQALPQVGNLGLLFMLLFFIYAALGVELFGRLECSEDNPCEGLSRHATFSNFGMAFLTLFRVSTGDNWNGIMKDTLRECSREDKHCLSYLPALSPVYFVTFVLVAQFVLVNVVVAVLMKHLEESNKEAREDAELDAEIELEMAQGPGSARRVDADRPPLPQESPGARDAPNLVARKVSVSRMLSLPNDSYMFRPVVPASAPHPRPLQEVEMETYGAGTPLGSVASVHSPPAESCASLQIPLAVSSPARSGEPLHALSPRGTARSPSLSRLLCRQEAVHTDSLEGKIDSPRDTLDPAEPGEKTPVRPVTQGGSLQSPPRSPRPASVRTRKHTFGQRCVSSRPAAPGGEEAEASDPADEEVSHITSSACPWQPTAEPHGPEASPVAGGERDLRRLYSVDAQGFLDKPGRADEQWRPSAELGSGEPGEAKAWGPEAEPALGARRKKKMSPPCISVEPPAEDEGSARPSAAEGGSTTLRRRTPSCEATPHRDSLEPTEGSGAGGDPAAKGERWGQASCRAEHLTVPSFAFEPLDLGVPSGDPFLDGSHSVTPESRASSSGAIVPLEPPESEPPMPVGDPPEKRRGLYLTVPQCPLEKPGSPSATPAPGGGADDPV

Shift in the voltage dependency (activation/inactivation) of CaV3.3 [1] | Hill coefficient on CaV3.3 [1] | IC50 [1] [µM] | Reversibility of effect on CaV3.3 on wash-out [1] | Shift in the voltage dependency (activation/inactivation) of CaV3.2 [3] | Hill coefficient on CaV3.2 [3] | IC50 [3] [µM] | Reversibility of effect on CaV3.2 on wash-out [3] | Shift in the voltage dependency (activation/inactivation) of CaV3.1 [4] | inhibition at 10 µM [4] [%] | IC50 [4] | Hill coefficient on CaV3.1 [4] | Reversibility of effect on CaV3.1 on wash-out [4] | SMILES | inhibition at 10 µM [2] [%] | further results
No significant shift | 0.7 ± 0.1 | 18.2 ± 3.1 | reversible | No significant shift | 0.8 ± 0.1 | 8.4 ± 3.6 | reversible | No significant shift | 43 ± 4.5 | 3.7 ± 0.6 µM | 0.9 ± 0.1 | reversible | CN(C)CC(O)COc1ccc(Nc2ccc(C(F)(F)F)cc2[N+](=O)[O-])cc1 (stereo not shown) [Compound 76] | 64.2 ± 3.2 | –
No significant shift | 0.5 ± 0.1 | 13.9 ± 5.1 | reversible | No significant shift | 0.8 ± 0.0 | 3 ± 0.2 | reversible | No significant shift | 43.4 ± 2.4 | 2.6 ± 0.6 µM | 0.8 ± 0.1 | reversible | CN(C)CCCOc1ccc(Nc2ccc(C(F)(F)F)cc2[N+](=O)[O-])cc1 [Compound 74] | 45.8 ± 2.9 | –
– | – | – | – | – | 1.4 ± 0.3 | 2.3 ± 0.5 | – | – | 90.7 ± 5.4 | ~3 µM and 4.1 µM | 1.6 ± 0.1 | – | CN(C)CC(O)COc1ccc(Oc2ccc(C(F)(F)F)cc2[N+](=O)[O-])cc1 (stereo not shown) [Compound 99] | 69.1 ± 1.9 | Shift in the voltage dependency (activation/inactivation) of CaV3.1 ([5]; 5 μM compound): no significant shift; inhibition at 5 µM ([5]; 5 μM compound, read-out: Inhibition of CaV3.1 currents): 57 ± 5.8%; Reversibility of effect on CaV3.1 on wash-out ([5]; 5 μM compound, wash-out with compound-free bath solution): not completely reversible; Midpoint of activation V1/2 ([5]; in the presence of 5 μM compound, control −39.9 ± 0.1 mV): −37.4 ± 0.1 mV; Inactivation curve V1/2 ([5]; in the presence of 5 μM compound, control −56.0 ± 0.1 mV): −53.0 ± 0.2 mV; Potency across CaV3.1 and hERG channels [6]: equipotent

More lines, now with the values behind:

SMILES | Shift in the voltage dependency (activation/inactivation) of CaV3.3 [1] | Hill coefficient on CaV3.3 [1] | IC50 [1] [µM] | Reversibility of effect on CaV3.3 on wash-out [1] | Shift in the voltage dependency (activation/inactivation) of CaV3.2 [3] | Hill coefficient on CaV3.2 [3] | IC50 [3] [µM] | Reversibility of effect on CaV3.2 on wash-out [3] | Shift in the voltage dependency (activation/inactivation) of CaV3.1 [4] | inhibition at 10 µM [4] [%] | IC50 [4] | Hill coefficient on CaV3.1 [4] | Reversibility of effect on CaV3.1 on wash-out [4] | inhibition at 10 µM [2] [%] | further results
CNCCCOc1c(Br)cc(CCNC(=O)/C(Cc2cc(Br)c(OC)c(Br)c2)=N/O)cc1Br [Compound 1, purpurealidin I] | – | – | – | – | – | – | – | – | – | 70.5 ± 0.6 | – | – | – | – | –
CN(C)CC(O)COc1ccc(Nc2ccc(C(F)(F)F)cc2)cc1 (stereo not shown) [Compound 79] | No significant shift | 0.7 ± 0.1 | 2.7 ± 0.3 | reversible | No significant shift | 1.0 ± 0.0 | 7 ± 0.1 | reversible | No significant shift | 60.4 ± 5.7 | 5.9 ± 1.9 µM | 0.8 ± 0.1 | reversible | 67.6 ± 3.9 | –
O=C(NCc1cccnc1)C1=NOC2(C=C(Cl)C(=O)C(Cl)=C2)C1 [Compound 72] | – | – | – | – | – | – | – | – | – | 3.1 ± 1.1 | – | – | – | – | –
CC(C)(C)NC(=O)CN1CCC(CNC(=O)c2cc(F)cc(Cl)c2)CC1 [Compound Z944] | – | – | – | – | – | – | – | – | – | – | – | – | – | – | IC50 [7]: 7.8 µM; Potency against CaV3.1 compared to hERG channels [7]: 150 fold
